According to patent publication US20230406850A1, “CRYSTALLINE FORM OF HETEROCYCLIC COMPOUND, PREPARATION METHOD THEREFOR AND APPLICATION THEREOF” (WUHAN LL SCIENCE AND TECHNOLOGY DEVELOPMENT CO., LTD., priority 2020, published 2023):
Converted amounts (≈) assume the structure as drawn. Where two headings read alike, the source gives them in different places.

Columns and labels:
[1] = Physical and chemical stability (stability boxes, XRPD and HPLC); format: physicochemical; settings: for Purity -7 days (peak area %) / XRPD: 7 days
Method: About 10 mg of crystalline forms I, III and V were placed in the stability boxes at 40° C./75% RH (open) and 60° C. (covered) for seven days, and some samples were taken out for XRPD and HPLC tests at 0 and 7 days, respectively, to investigate their physical and chemical stability.

[2] = Solid form change on dehydration, drying or ambient humidity (XRPD); format: physicochemical; settings: heating to dehydration, then ambient humidity
Source text: Combined with DSC and TGA pattern, it can be seen that the product is hydrate with about 0.34 water molecules.

[3] = Pharmacokinetics of crystalline form III, fasting and non-fasting; format: in vivo, Beagle dog; settings: for AUC(0-inf) / Cmax / MRT last / Tmax / half-life / AUC(0-t): beagle, dog, po, 100 mg/kg, 100 mg/kg po
Method: Beagle dog (general grade, Beijing Masi Biotechnology Co., Ltd.) was given compound A by single oral gavage to study the pharmacokinetics of the compound in plasma. The test drug (100 mg/kg dosage, 5 mL/kg administration volume) was given by gavage, and samples were collected at 10 minutes, 30 minutes, 1 hour, 2 hours, 4 hours, 6 hours, 8 hours, 10 hours, 24 hours and 48 hours after administration: peripheral venipuncture was performed, and about 1.0 mL whole blood was collected from each animal at every time point, and blood samples were collected. Within 60 minutes after blood collection, 0.2 mL of whole blood was separated into a cryopreservation tube, and deionized water was added at a ratio of 1:1, which was mixed upside down and then frozen. The remaining samples were centrifuged at 2,000 g at 2 to 8° C. for 10 min to obtain plasma samples, and the hemolysis of each sample was recorded, and the influence on detection was evaluated, and then the color of plasma was observed and recorded on the blood collection table (“−” means no hemolysis, “+” means pink supernatant and “++” means red supernatant).
The concentration of compound A in plasma was determined by LC-MS/MS method (Non-GLP). The pharmacokinetic parameters were calculated by WinNonlin (Phoenix™, version 8.1) or other similar software. If applicable plasma drug concentration-time data are available, the following pharmacokinetic parameters are calculated: CL (clearance), Vss (steady-state apparent volume of distribution), T1/2 (elimination half-life), Cmax (peak concentration), Tmax (peak time), AUC (area under the concentration-time curve), MRT (mean residence time). Pharmacokinetic data were described by descriptive statistics, such as mean, standard deviation and sample size.

[4] = Stability of crystalline form III slurried in DMSO/water mixed solvents; format: physicochemical; settings: for The experimental results (crystalline form): slurried three days at room temperature
[5] = Solubility in biological media SGF, FaSSIF and FeSSIF; format: physicochemical
Method: Compared with other crystalline forms, crystalline forms I, III and V show good solid properties, so their solubility was tested respectively.
10 mg of the sample was weighed, and then 2.0 mL of biological media buffer (i.e. the target concentration is 5 mg/mL) was added to form a suspension. The mixture was put in a constant temperature water bath shaker (37° C., 100 rpm), and sampled 500 μL at 0.5, 2 and 24 hours respectively. After filtration, the pH value and HPLC concentration of filtrate were tested respectively, and the solid sample obtained by filtration was tested by XRPD.

[6] = Dynamic vapor sorption (DVS) hygroscopicity; format: physicochemical
Method: The solid was analyzed by DVS using IGA sorp dynamic vapor sorption instrument. • Temperature: 25° C. • Gas flow: 250 mL/min. • Scan cycle: 2. • Minimum test time: 30 min. • Maximum test time: 2 hours. • Waiting for balance: 98%.

[7] = Solubility in DMSO and DMSO/water mixed solvents; format: physicochemical
[8] = female, whole blood, Non-fast, blood
[9] = female, whole blood, fast, blood
[10] = male, whole blood, Non-fast, blood

In the case of `COC(=O)N1CCO[C@@H](Cc2c(-c3c(F)cc(S(N)(=O)=O)cc3F)nc3cc(Cl)ccn23)C1` [Crystalline form III, methyl (S)-2-((7-chloro-2-(2,6-difluoro-4-sulfamoylphenyl)imidazo[1,2-a]pyridin-3-yl)methyl)morpholine-4-carboxylate], the “Initial purity (Peak area %)” value ([1]; 0 days) is reported as 99.34 peak area %, the “Purity -7 days (peak area %)” value ([1]; 40° C./75% RH (open)) is reported as 99.35 peak area % and the XRPD ([1]; 40° C./75% RH (open)) is reported as “Constant”. The “stability conclusion in words” value ([1]; 40° C./75% RH and 60° C., seven days) was “good physical and chemical stability”, the “Purity -7 days (peak area %)” value ([1]; 60° C. (covered)) was 99.35 peak area % and the XRPD ([1]; 60° C. (covered)) was “Constant”. The “crystalline form after dehydration” value [2] was “becomes crystalline form III again”, the “blood: plasma” value ([3]; fasting condition, female) was 521% and the “blood: plasma” value ([3]; fasting condition, male (first value)) was 1452%. For the same compound, the “plasma drug concentration, male relative to female” value ([3]; fasting condition, plasma) was “about 6 times”, the “whole blood drug concentration, male relative to female” value ([3]; fasting condition, whole blood) was 1.9 times and the AUC(0-inf) ([3]; female, plasma, Non-fast) was 466 µg·h/mL. It also gave a Cmax ([3]; female, plasma, Non-fast) of 24000 ng/mL, an MRT last ([3]; female, plasma, Non-fast) of 12.6 h and a Tmax ([3]; female, plasma, Non-fast) of 7.33 h. It also gave a half-life ([3]; female, plasma, Non-fast) of 308 min, an AUC(0-t) ([3]; female, plasma, Non-fast, plasma, female, read-out: AUC0-24 h) of 378 µg·h/mL and an AUC(0-t) ([3]; female, plasma, Non-fast, plasma, female, read-out: AUClast) of 465 µg·h/mL. For the same compound, the AUC(0-inf) ([3]; female, plasma, fast) was 9.21 µg·h/mL, the Cmax ([3]; female, plasma, fast) was 1680 ng/mL and the MRT last ([3]; female, plasma, fast) was 8.06 h. It also gave a Tmax ([3]; female, plasma, fast) of 1.33 h, a half-life ([3]; female, plasma, fast) of 720 min and an AUC(0-t) ([3]; female, plasma, fast, plasma, female, read-out: AUC0-24 h) of 7.54 µg·h/mL. For the same compound, the AUC(0-t) ([3]; female, plasma, fast, plasma, female, read-out: AUClast) was 8.16 µg·h/mL, the AUC(0-inf) [3, 8] was 955 µg·h/mL and the Cmax [3, 8] was 23500 ng/mL. For the same compound, the MRT last [3, 8] was 18.7 h, the Tmax [3, 8] was 6 h and the half-life [3, 8] was 1510 min. For the same compound, the AUC(0-t) ([3]; female, whole blood, Non-fast, blood, female, read-out: AUC0-24 h) was 432 µg·h/mL, the AUC(0-t) ([3]; female, whole blood, Non-fast, blood, female, read-out: AUClast) was 675 µg·h/mL and the AUC(0-inf) [3, 9] was 242 µg·h/mL. The Cmax [3, 9] was 10300 ng/mL, the MRT last [3, 9] was 14.1 h and the Tmax [3, 9] was 1.83 h. For the same compound, the half-life [3, 9] was 1340 min, the AUC(0-t) ([3]; female, whole blood, fast, blood, female, read-out: AUC0-24 h) was 134 µg·h/mL and the AUC(0-t) ([3]; female, whole blood, fast, blood, female, read-out: AUClast) was 187 µg·h/mL. It also gave an AUC(0-inf) ([3]; male, plasma, Non-fast) of 367 µg·h/mL, a Cmax ([3]; male, plasma, Non-fast) of 18900 ng/mL and an MRT last ([3]; male, plasma, Non-fast) of 11.8 h. The Tmax ([3]; male, plasma, Non-fast) was 4.67 h, the half-life ([3]; male, plasma, Non-fast) was 320 min and the AUC(0-t) ([3]; male, plasma, Non-fast, plasma, male, read-out: AUC0-24 h) was 305 µg·h/mL. It also gave an AUC(0-t) ([3]; male, plasma, Non-fast, plasma, male, read-out: AUClast) of 366 µg·h/mL, an AUC(0-inf) ([3]; male, plasma, fast) of 40.2 µg·h/mL and a Cmax ([3]; male, plasma, fast) of 5700 ng/mL. The MRT last ([3]; male, plasma, fast) was 13.6 h, the Tmax ([3]; male, plasma, fast) was 9 h and the AUC(0-t) ([3]; male, plasma, fast, plasma, male, read-out: AUC0-24 h) was 48.8 µg·h/mL. For the same compound, the AUC(0-t) ([3]; male, plasma, fast, plasma, male, read-out: AUClast) was 81.4 µg·h/mL, the AUC(0-inf) [3, 10] was 818 µg·h/mL and the Cmax [3, 10] was 19000 ng/mL. For the same compound, the MRT last [3, 10] was 18.9 h, the Tmax [3, 10] was 4.67 h and the half-life [3, 10] was 1710 min. The AUC(0-t) ([3]; male, whole blood, Non-fast, blood, male, read-out: AUC0-24 h) was 353 µg·h/mL, the AUC(0-t) ([3]; male, whole blood, Non-fast, blood, male, read-out: AUClast) was 557 µg·h/mL and the AUC(0-inf) ([3]; male, whole blood, fast, blood) was 521 µg·h/mL. It also gave a Cmax ([3]; male, whole blood, fast, blood) of 14600 ng/mL, an MRT last ([3]; male, whole blood, fast, blood) of 19.5 h and a Tmax ([3]; male, whole blood, fast, blood) of 9.33 h. The half-life ([3]; male, whole blood, fast, blood) was 893 min, the AUC(0-t) ([3]; male, whole blood, fast, blood, male, read-out: AUC0-24 h) was 255 µg·h/mL and the AUC(0-t) ([3]; male, whole blood, fast, blood, male, read-out: AUClast) was 449 µg·h/mL. The “blood: plasma” value ([3]; non-fasting condition, female) was 116%, the “blood: plasma” value ([3]; non-fasting condition, male (first value)) was 114% and the “The experimental results (crystalline form)” value (shortened to “The experimental results”) ([4]; DMSO/Water 1/2 V/V) was “Crystalline form III”. For the same compound, the “The experimental results” value ([4]; DMSO/Water 1/4 V/V) was “Crystalline form III”, the “The experimental results” value ([4]; DMSO/Water 2/3 V/V) was “Crystalline form III” and the “water content of DMSO/water in which the form is stable without crystal transformation” value ([4]; room temperature) was “higher than 60 % (volume percentage)”. The “XRPD of remaining solid” value ([5]; FaSSIF, 0.5 h) was “Unchanged”, the pH of filtrate ([5]; FaSSIF, 0.5 h) was 6.4 and the Solubility ([5]; FaSSIF, 0.5 h, 37° C.) was 0.023 mg/mL (≈ 45.9 µM). For the same compound, the “XRPD of remaining solid” value ([5]; FaSSIF, 2 h) was “Unchanged”, the pH of filtrate ([5]; FaSSIF, 2 h) was 6.4 and the Solubility ([5]; FaSSIF, 2 h, 37° C.) was 0.025 mg/mL (≈ 49.9 µM). For the same compound, the “XRPD of remaining solid” value ([5]; FaSSIF, 24 h) was “Unchanged”, the pH of filtrate ([5]; FaSSIF, 24 h) was 6.4 and the Solubility ([5]; FaSSIF, 24 h, 37° C.) was 0.033 mg/mL (≈ 65.9 µM). The “XRPD of remaining solid” value ([5]; FeSSIF, 0.5 h) was “Unchanged”, the pH of filtrate ([5]; FeSSIF, 0.5 h) was 4.9 and the Solubility ([5]; FeSSIF, 0.5 h, 37° C.) was 0.074 mg/mL (≈ 148 µM). For the same compound, the “XRPD of remaining solid” value ([5]; FeSSIF, 2 h) was “Unchanged”, the pH of filtrate ([5]; FeSSIF, 2 h) was 4.8 and the Solubility ([5]; FeSSIF, 2 h, 37° C.) was 0.088 mg/mL (≈ 176 µM). For the same compound, the “XRPD of remaining solid” value ([5]; FeSSIF, 24 h) was “Unchanged”, the pH of filtrate ([5]; FeSSIF, 24 h) was 4.9 and the Solubility ([5]; FeSSIF, 24 h, 37° C.) was 0.120 mg/mL (≈ 240 µM). The solubility at 0.5 h ([5]; SGF, 37 °C, simulated gastric fluid, thermodynamic from solid, SGF, 0.5 h, 37° C., read-out: Solubility (visual observation)) was over 5000 µg/mL, the pH of filtrate ([5]; SGF, 0.5 h) was 1.0 and the “XRPD before and after the DVS test” value [6] was “no obvious change in the XRPD”. For the same compound, the “DVS pattern, behaviour in words” value ([6]; 25° C.) was “the water content changes little in a wide humidity range”, the Solubility ([7]; aqueous with cosolvent or surfactant or cyclodextrin, DMSO/Water 1:2, RT) was about 500 µg/mL (≈ 998 µM) and the Solubility ([7]; aqueous with cosolvent or surfactant or cyclodextrin, DMSO/Water 1:3, RT) was about 280 µg/mL (≈ 559 µM). It also gave a Solubility ([7]; aqueous with cosolvent or surfactant or cyclodextrin, DMSO/Water 1:4, RT) of under 250 µg/mL and a Solubility ([7]; organic solvent or mixture, DMSO, RT) of over 200000 µg/mL.
